Measured values reported in publication PMC4022547 (Molecular Brain, 2014).

How the values were obtained:
[1] = biological target: hα6(D57N) + WT hβ2 + hβ3^V9’S nAChR (Homo sapiens, UniProt P17787+Q15825, D57N); settings: nicotine
Experimental: (§1) We planned to introduce identical amounts of cRNA, presumably producing equal amounts of each subunit protein, into oocytes largely due to lack of information about the levels of mRNA for each subunits that compose α6*-nAChRs in neurons or other cells. Concentrations of cRNAs for each nAChR α and β subunits (WT, mutant or variant) were adjusted to 500 ng μL^−1. We provisionally assumed that hα6 or its variants in association with hβ2 or hβ4 subunits would form complexes having 2:3 and/or 3:2 ratios of the indicated subunits and that oocytes also injected with WT or mutant form of β3 subunits (i.e., β3^V9’S) would express nAChR with 2:2:1 ratios of α:β:(β3 or β3^V9’S) subunits. For expression of binary nAChRs (i.e., two subunit containing nAChRs; α + β but not β3) cRNA mixtures were prepared by mixing 1 μL of cRNA for each subunit and an additional μL of RNAse free water (i.e., total volume 3 μL). Similarly for expression of ternary nAChRs [i.e., three subunit containing nAChRs; (α + β) + (β3 or β3^V9’S)] cRNA mixtures were prepared by mixing 1 μL of cRNA for each subunit. Several preparations of each mixture were prepared and stored at −80°C until further use. Injection of 138 nL of cRNA, out of 3 μL cRNA mixtures, into each oocyte would deliver ~23 ng of cRNA for each subunit whether binary or ternary nAChRs are expressed.
(§2) Two to 5 days after injection, oocytes were placed in a small-volume chamber and continuously perfused with OR2. The chamber was grounded through an agarose bridge. The oocytes were voltage-clamped at −70 mV (unless otherwise noted) to measure agonist or antagonist induced currents using Axoclamp 900A and pClamp 10.2 software (Molecular Devices, Sunnyvale, CA). The current signal was low-pass filtered at 10 Hz with the built-in low-pass Bessel filter in the Axoclamp 900A and digitized at 20 Hz with Axon Digidata1440A and pClamp10. […] Drugs (agonists and antagonists) were prepared daily in OR2. Drug was applied using a Valvelink 8.2 perfusion system (Automate scientific, Berkeley, CA). […] Then for the purpose of comparison electrophysiological recordings were performed in a given day in a given batch of oocytes following the same order of injections. […] All hβ4*-nAChR recordings were done in similar conditions to facilitate comparisons between hα6hβ4- and hα6hβ4hβ3-nAChRs. All electrophysiological measurements were conducted or checked in at least two batches of oocytes.
(§3) Raw data was collected and processed in part using pClamp 10.2 (Molecular Devices, Sunnyvale, CA), Origin 7.5 (OriginLab Corporation, Northampton, MA) and a spreadsheet (Excel; Microsoft, Bellevue, WA). Peak current amplitudes (Imax) are reported as mean ± SEM (for results from at least three oocytes, i.e., n = 3).

hα6(E101K) + hβ4 nAChR = hα6(E101K) + hβ4 nAChR (Homo sapiens, UniProt P30926+Q15825, E101K); settings: 100 μM nicotine; oocytes clamped at −70 mV
hα6(E101K) + hβ4 nAChR, sequence (Q15825 26-494 E101K): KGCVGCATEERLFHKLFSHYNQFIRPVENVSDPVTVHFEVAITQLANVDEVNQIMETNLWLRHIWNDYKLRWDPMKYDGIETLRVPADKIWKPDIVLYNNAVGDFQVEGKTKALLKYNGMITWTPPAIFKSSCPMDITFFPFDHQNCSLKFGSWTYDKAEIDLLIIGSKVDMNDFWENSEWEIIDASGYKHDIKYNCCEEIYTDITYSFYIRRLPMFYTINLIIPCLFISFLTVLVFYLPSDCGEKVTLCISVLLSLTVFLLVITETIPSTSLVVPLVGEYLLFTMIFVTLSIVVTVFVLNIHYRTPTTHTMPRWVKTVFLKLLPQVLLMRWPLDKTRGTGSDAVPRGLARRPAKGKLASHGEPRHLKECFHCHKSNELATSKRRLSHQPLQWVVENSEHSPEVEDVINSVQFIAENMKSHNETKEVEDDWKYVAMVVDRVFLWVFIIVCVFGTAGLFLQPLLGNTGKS
hα6(E101K) + hβ4 nAChR, sequence (P30926 22-498): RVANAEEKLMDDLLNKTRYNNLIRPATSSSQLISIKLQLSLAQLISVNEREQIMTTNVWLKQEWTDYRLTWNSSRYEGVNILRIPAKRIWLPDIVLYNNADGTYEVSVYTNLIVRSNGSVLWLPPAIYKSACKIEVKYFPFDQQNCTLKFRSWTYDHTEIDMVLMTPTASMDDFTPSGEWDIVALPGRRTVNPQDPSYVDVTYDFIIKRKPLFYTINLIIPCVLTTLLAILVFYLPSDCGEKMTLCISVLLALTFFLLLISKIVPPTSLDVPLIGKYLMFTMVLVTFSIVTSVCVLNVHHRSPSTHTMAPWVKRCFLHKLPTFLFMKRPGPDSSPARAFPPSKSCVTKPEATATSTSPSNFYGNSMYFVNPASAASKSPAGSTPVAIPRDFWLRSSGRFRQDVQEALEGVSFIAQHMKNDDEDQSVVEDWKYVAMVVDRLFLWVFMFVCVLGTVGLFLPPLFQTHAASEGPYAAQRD
Experimental: as §1, §2, §3

[2] = biological target: hα6(N171K) + WT hβ2 + hβ3^V9’S nAChR (Homo sapiens, UniProt P17787+Q15825, N171K); settings: nicotine
Experimental: as §1, §2, §3

[3] = test system: hα6(R96H) + WT hβ2 + hβ3^V9’S nAChR; settings: 100 μM nicotine; higher, p < 0.05
Experimental: as §1, §2, §3

[4] = biological target: hα6 + codon optimized hβ2 + hβ3^V9’S nAChR (Homo sapiens, UniProt P17787+Q15825); settings: 100 μM nicotine
hα6 + codon optimized hβ2 + hβ3^V9’S nAChR, sequence (Q15825 26-494): as the sequence (Q15825 26-494 E101K) above, with K76E counted along it
hα6 + codon optimized hβ2 + hβ3^V9’S nAChR, sequence (P17787 26-502): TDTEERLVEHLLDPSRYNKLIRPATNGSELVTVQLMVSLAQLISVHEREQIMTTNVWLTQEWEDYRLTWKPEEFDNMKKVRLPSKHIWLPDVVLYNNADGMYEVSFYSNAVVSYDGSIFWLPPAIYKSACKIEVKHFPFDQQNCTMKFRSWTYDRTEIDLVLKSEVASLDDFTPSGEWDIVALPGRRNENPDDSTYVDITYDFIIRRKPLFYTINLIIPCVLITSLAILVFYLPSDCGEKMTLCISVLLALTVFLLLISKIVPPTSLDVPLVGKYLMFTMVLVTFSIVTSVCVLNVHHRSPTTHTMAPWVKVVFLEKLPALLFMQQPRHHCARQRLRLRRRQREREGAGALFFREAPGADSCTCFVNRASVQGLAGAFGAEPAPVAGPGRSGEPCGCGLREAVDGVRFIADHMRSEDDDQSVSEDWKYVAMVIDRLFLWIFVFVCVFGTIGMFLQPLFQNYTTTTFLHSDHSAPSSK
hα6 + codon optimized hβ2 + hβ3^V9’S nAChR, sequence (Q05901 22-458 V273S partner): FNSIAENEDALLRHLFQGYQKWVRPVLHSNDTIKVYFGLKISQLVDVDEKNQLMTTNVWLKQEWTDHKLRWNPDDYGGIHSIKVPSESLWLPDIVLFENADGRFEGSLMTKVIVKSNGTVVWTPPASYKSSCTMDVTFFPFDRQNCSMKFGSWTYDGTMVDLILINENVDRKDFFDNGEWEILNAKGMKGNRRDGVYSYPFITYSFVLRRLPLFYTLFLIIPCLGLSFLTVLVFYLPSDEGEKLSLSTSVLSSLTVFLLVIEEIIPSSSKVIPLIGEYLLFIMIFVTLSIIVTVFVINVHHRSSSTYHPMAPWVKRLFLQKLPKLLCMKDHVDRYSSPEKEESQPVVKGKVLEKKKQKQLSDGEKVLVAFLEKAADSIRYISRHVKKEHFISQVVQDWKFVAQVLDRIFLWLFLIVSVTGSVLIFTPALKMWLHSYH
Experimental: as §1, §2, §3

[5] = biological target: hα6(S43P) + WT hβ2 + hβ3^V9’S nAChR (Homo sapiens, UniProt P17787+Q15825, S43P); settings: nicotine
Experimental: as §1, §2, §3

[6] = biological target: hα6(E101K) + hβ4 + hβ3 nAChR (Homo sapiens, UniProt P30926+Q15825, E101K); settings: 100 μM nicotine; oocytes clamped at −70 mV
Experimental: as §1, §2, §3

[7] = biological target: hα6(S156R) + hβ4 + hβ3 nAChR (Homo sapiens, UniProt P30926+Q15825, S156R); settings: nicotine
Experimental: as §1, §2, §3

hα6(N46K) + hβ4 nAChR = hα6(N46K) + hβ4 nAChR (Homo sapiens, UniProt P30926+Q15825, N46K); settings: 100 μM nicotine; oocytes clamped at −70 mV
Experimental: as §1, §2, §3

[8] = biological target: hα6(R96H) + codon optimized hβ2 + hβ3^V9’S nAChR (Homo sapiens, UniProt P17787+Q15825, R96H); settings: 100 μM nicotine; oocytes clamped at −70 mV
Experimental: as §1, §2, §3

[9] = biological target: hα6(D92E) + WT hβ2 + hβ3^V9’S nAChR (Homo sapiens, UniProt P17787+Q15825, D92E); settings: nicotine
Experimental: as §1, §2, §3

[10] = biological target: hα6(N46K) + codon optimized hβ2 + hβ3^V9’S nAChR (Homo sapiens, UniProt P17787+Q15825, N46K); settings: 100 μM nicotine; oocytes clamped at −70 mV
Experimental: as §1, §2, §3

[11] = biological target: hα6(D57N) + hβ4 + hβ3 nAChR (Homo sapiens, UniProt P30926+Q15825, D57N); settings: nicotine
hα6(D57N) + hβ4 + hβ3 nAChR, sequence (Q15825 26-494 D57N): as the sequence (Q15825 26-494 E101K) above, with D32N, K76E counted along it
hα6(D57N) + hβ4 + hβ3 nAChR, sequence (P30926 22-498): as the sequence (P30926 22-498) above
Experimental: as §1, §2, §3

[12] = biological target: hα6(A112V) + WT hβ2 + hβ3^V9’S nAChR (Homo sapiens, UniProt P17787+Q15825, A112V); settings: 100 μM nicotine; 3 days after cRNA injection
Experimental: as §1, §2, §3

[13] = biological target: hα6(N171K) + hβ4 + hβ3 nAChR (Homo sapiens, UniProt P30926+Q15825, N171K); settings: nicotine
Experimental: as §1, §2, §3

[14] = biological target: hα6(S43P) + codon optimized hβ2 + hβ3^V9’S nAChR (Homo sapiens, UniProt P17787+Q15825, S43P); settings: 100 μM nicotine; oocytes clamped at −70 mV
Experimental: as §1, §2, §3

hα6(S43P) + hβ4 nAChR = hα6(S43P) + hβ4 nAChR (Homo sapiens, UniProt P30926+Q15825, S43P); settings: 100 μM nicotine; oocytes clamped at −70 mV
Experimental: as §1, §2, §3

[15] = test system: hα6(D199Y) + WT hβ2 + hβ3^V9’S nAChR; settings: 100 μM nicotine; higher, p < 0.05
Experimental: as §1, §2, §3

hα6(D57N) + WT hβ2 + hβ3^V9’S nAChR, sequence (Q15825 26-494 D57N): as the sequence (Q15825 26-494 E101K) above, with D32N, K76E counted along it
hα6(D57N) + WT hβ2 + hβ3^V9’S nAChR, sequence (P17787 26-502): as the sequence (P17787 26-502) above
hα6(D57N) + WT hβ2 + hβ3^V9’S nAChR, sequence (Q05901 25-458 V273S partner limits assumed): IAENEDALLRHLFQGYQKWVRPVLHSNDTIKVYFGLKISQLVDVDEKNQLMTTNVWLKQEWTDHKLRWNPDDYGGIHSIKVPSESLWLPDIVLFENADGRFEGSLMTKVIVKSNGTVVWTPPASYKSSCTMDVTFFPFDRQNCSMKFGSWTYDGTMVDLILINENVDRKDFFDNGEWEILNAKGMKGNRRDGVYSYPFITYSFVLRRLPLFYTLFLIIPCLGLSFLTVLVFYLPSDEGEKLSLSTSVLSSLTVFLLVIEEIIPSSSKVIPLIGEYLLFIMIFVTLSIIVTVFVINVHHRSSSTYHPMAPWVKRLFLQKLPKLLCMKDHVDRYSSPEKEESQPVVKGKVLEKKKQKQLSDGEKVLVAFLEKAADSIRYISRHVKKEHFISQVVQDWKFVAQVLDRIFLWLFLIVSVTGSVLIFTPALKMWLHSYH

Compound: CN1CCC[C@H]1c1cccnc1 [nicotine, L-nicotine]
- current response [1]: did not yield current responses
- peak current (Imax, mean ± SE) (hα6(E101K) + hβ4 nAChR): 73 ± 10 nA
- current response [2]: did not yield current responses
- peak current response relative to hα6hβ2hβ3^V9’S-nAChRs [3]: 2-5 fold
- current response relative to receptor with WT hβ2 ([4]; codon optimized vs. WT hβ2): ~ 31 fold
- peak current (Imax, mean ± SE) ([4]; oocytes clamped at −70 mV): 469 ± 75 nA
- current response [5]: did not yield current responses
- Mean (±SE) peak current response [6]: 467 ± 54 nA
- current response [7]: did not elicit current responses
- peak current (Imax, mean ± SE) (hα6(N46K) + hβ4 nAChR): 78 ± 11 nA
- peak current (Imax, mean ± SE) [8]: 1075 ± 175 nA
- current response [9]: did not yield current responses
- peak current (Imax, mean ± SE) [10]: 118 ± 33 nA
- current response [11]: did not elicit current responses
- peak current response [12]: 15-30 nA
- current response [13]: did not elicit current responses
- peak current (Imax, mean ± SE) [14]: 47 ± 9 nA
- peak current (Imax, mean ± SE) (hα6(S43P) + hβ4 nAChR): 39 ± 5 nA
- peak current response relative to hα6hβ2hβ3^V9’S-nAChRs [15]: 2-5 fold
